#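 Protocol summary: plate cells (96-well), add compound at 5 concentrations, incubate 48 h, interpolate endpoints linearly. Here, GI50 denotes the concentration required for 50% inhibition of growth. TGI marks complete inhibition of growth.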
# Legend:
# Test in all cases: NCI-60 cell line screen, 48 h
# U251 CNS = tested on: U251 CNS
# NCI-H23 lung = tested on: NCI-H23 lung
# A498 renal = tested on: A498 renal
# A549 NSCLC = tested on: A549 NSCLC
# HOP-92 NSCLC = tested on: HOP-92 NSCLC
# UACC-257 melanoma = tested on: UACC-257 melanoma
# RPMI-8226 leukemia = tested on: RPMI-8226 leukemia
# MDA-MB-231 breast = tested on: MDA-MB-231 breast
# NCI/ADR-RES ovarian = tested on: NCI/ADR-RES ovarian
# HS 578T breast = tested on: HS 578T breast
Structure (SMILES),TGI (U251 CNS),TGI (NCI-H23 lung),TGI (A498 renal),TGI (A549 NSCLC),TGI (HOP-92 NSCLC),TGI (UACC-257 melanoma),TGI (RPMI-8226 leukemia),TGI (MDA-MB-231 breast),TGI (NCI/ADR-RES ovarian),TGI (HS 578T breast),GI50 (U251 CNS),GI50 (NCI-H23 lung),GI50 (A498 renal),GI50 (A549 NSCLC),GI50 (HOP-92 NSCLC),GI50 (UACC-257 melanoma),GI50 (MDA-MB-231 breast),GI50 (NCI/ADR-RES ovarian),GI50 (HS 578T breast),GI50 (RPMI-8226 leukemia)
CCSCCC(N)C(=O)O (stereo unspecified),> 100 µM,> 100 µM,> 100 µM,> 100 µM,> 100 µM,> 100 µM,> 100 µM,> 100 µM,> 100 µM,> 100 µM,–,–,–,–,–,–,–,–,–,–
CCOC(=O)CSc1nc(N)c2c(-c3ccc(OC)c(OC)c3)c3c(nc2n1)CCCC3,> 100 µM,> 100 µM,–,> 100 µM,–,> 100 µM,> 100 µM,> 100 µM,> 100 µM,35.6 µM,–,–,–,–,–,–,–,–,–,–
CC(=O)Nc1cc([As](=O)(O)O)ccc1O,> 100 µM,> 100 µM,> 100 µM,> 100 µM,> 100 µM,> 100 µM,> 100 µM,> 100 µM,> 100 µM,> 100 µM,–,–,–,–,–,–,–,–,–,–
CCN(CC)CC(C)Nc1ccc([N+](=O)[O-])c2sc3ccccc3c(=O)c12 (stereo unspecified),10.7 µM,16.1 µM,10.5 µM,5.04 µM,–,4.15 µM,–,9.09 µM,> 58.5 µM,13.4 µM,1.46 µM,2.42 µM,1.49 µM,0.938 µM,1.39 µM,1.68 µM,2.16 µM,2.65 µM,2.72 µM,–
ONc1ncnc2nc[nH]c12,> 100 µM,> 100 µM,–,> 100 µM,> 100 µM,> 100 µM,> 100 µM,–,–,–,–,–,–,–,–,–,–,–,–,–
O=C(CCCCCCC(=O)Nc1ccc(N(CCCl)CCCl)cc1)NO,–,8.64 µM,13.1 µM,–,5.47 µM,14.1 µM,> 100 µM,52.4 µM,> 100 µM,> 100 µM,–,2.1 µM,3.11 µM,–,1.19 µM,2.27 µM,6.99 µM,5.4 µM,5.66 µM,3.02 µM
Cc1nc(N)nc(N)c1-c1ccc(Cl)c(Cl)c1,> 100 µM,> 81 µM,> 80.6 µM,> 100 µM,79.7 µM,> 100 µM,> 100 µM,> 100 µM,> 100 µM,58 µM,–,–,–,–,–,–,–,–,–,–
COc1cc(C2C(C(=O)O)=C(CO)Oc3cc4c(cc32)OCO4)cc(OC)c1O (stereo unspecified),> 100 µM,–,–,> 100 µM,> 100 µM,> 100 µM,> 100 µM,–,–,–,–,–,–,–,–,–,–,–,–,–
CCS(=O)(=O)Nc1ccc(Nc2c3ccccc3nc3ccccc23)c(OC)c1,2.43 µM,3.79 µM,2.28 µM,1.7 µM,5.35 µM,16.9 µM,8.24 µM,–,20.6 µM,–,–,–,–,–,–,–,–,–,–,–
CNC(=O)OC(C)CN1c2ccccc2Sc2ccc(Cl)cc21 (stereo unspecified),> 10 µM,> 10 µM,> 10 µM,> 10 µM,–,–,> 10 µM,> 10 µM,> 10 µM,> 10 µM,–,–,–,–,–,–,–,–,–,–
C[C@]12CC[C@@H]3c4ccc(OP(=O)(O)O)cc4CC[C@H]3[C@@H]1CCC2=O,> 100 µM,> 100 µM,> 100 µM,> 100 µM,> 100 µM,> 100 µM,> 100 µM,> 100 µM,> 100 µM,> 100 µM,–,–,–,–,–,–,–,–,–,–
CC1SC(c2ccccc2)N(CCc2cccs2)C1=O (stereo unspecified),14.5 µM,15.1 µM,14.2 µM,15.1 µM,5.59 µM,14.5 µM,8.07 µM,16.1 µM,21.1 µM,38.1 µM,3.95 µM,3.23 µM,2.63 µM,4.16 µM,1.27 µM,4.73 µM,3.3 µM,3.12 µM,4.52 µM,2.44 µM
Cc1cccc2nc3c(C(=O)NCCN(C)C)cccc3cc12,8.63 µM,5.02 µM,3.48 µM,3.5 µM,3.99 µM,3.44 µM,4.19 µM,–,6.23 µM,–,–,–,–,–,–,–,–,–,–,–
COc1ccc2nc(N/N=C/C(C)=N/Nc3cc(C)c4cc(OC)ccc4n3)cc(C)c2c1,31.6 µM,48.9 µM,> 80.9 µM,45.7 µM,> 89.9 µM,> 86.6 µM,19.2 µM,36.7 µM,46.1 µM,68.8 µM,–,–,–,–,–,–,–,–,–,–
O=C(N/N=C(/c1ccccc1)C(F)(F)F)c1ccncc1,> 100 µM,> 100 µM,> 100 µM,–,> 100 µM,–,> 100 µM,–,> 100 µM,> 100 µM,–,–,–,–,–,–,–,–,–,–
CCOC(=O)c1nc2ccc(Cl)cc2c2c1Cc1ccccc1-2,> 100 µM,> 100 µM,–,> 100 µM,–,> 100 µM,> 100 µM,–,–,–,–,–,–,–,–,–,–,–,–,–
CCCc1[nH]c(SCCCCCCCCSc2nc(-c3ccc(F)cc3)c(CCC)[nH]2)nc1-c1ccc(F)cc1,> 100 µM,30.6 µM,–,> 100 µM,29.6 µM,> 100 µM,–,–,–,–,–,–,–,–,–,–,–,–,–,–
N=c1c2c(C(N)=O)cn(C3OC(CO)C(O)C3O)c2ncn1O (stereo unspecified),3.14 µM,0.358 µM,–,2.11 µM,> 100 µM,0.901 µM,–,–,0.447 µM,7.91 µM,–,–,–,–,–,–,–,–,–,–
N=C(N)c1ccc(-c2ccc(-c3cc(Cl)cc(Cl)c3)o2)nc1,3.31 µM,3.93 µM,3.22 µM,–,3.14 µM,3.59 µM,4.33 µM,3.3 µM,3.81 µM,3.93 µM,1.76 µM,1.96 µM,1.47 µM,–,1.56 µM,1.84 µM,1.65 µM,1.93 µM,1.87 µM,2.03 µM
COc1ccc2nc(-c3ccc(-c4noc(-c5cc(OC)c(OC)c(OC)c5)n4)cc3)[nH]c2c1,4.88 µM,20 µM,> 100 µM,20.3 µM,33.5 µM,46.9 µM,> 100 µM,13.9 µM,23.6 µM,55.7 µM,1.68 µM,4.1 µM,28 µM,5.65 µM,14.3 µM,17.1 µM,2.65 µM,3.32 µM,9.49 µM,6.02 µM
O=S(=O)(O)c1ccc2cccc(N=Nc3c(O)ccc4ccccc34)c2c1,> 100 µM,> 100 µM,> 100 µM,> 100 µM,> 100 µM,> 100 µM,–,> 100 µM,> 100 µM,> 100 µM,–,–,–,–,–,–,–,–,–,–
CN(C)CC(=O)Nc1ccc(Cn2nnc3c2C(=O)c2nnn(Cc4ccc(NC(=O)CN(C)C)cc4)c2C3=O)cc1,0.361 µM,0.488 µM,2.29 µM,–,–,0.339 µM,0.783 µM,–,> 100 µM,2.06 µM,0.183 µM,0.192 µM,1.07 µM,–,–,0.172 µM,–,> 100 µM,0.337 µM,0.225 µM
